The results in this text go back to EPA's ToxValDB 9.5 (doi:10.2903/j.efsa.2010.1873).

One data set concerns Anabaena flosaquae. The following applies: acute; duration: 72 hours; biomass.
The next data set concerns Anas platyrhynchos. The conditions noted are these: oral, mortality.
A further data set relates to Apis mellifera. The following applies: acute; duration: 48 hours; oral; unspecified; mortality.
The test system of the next data set is Bibionidae. The following applies: chronic/long-term; duration: 28 days; development.
Another data set concerns Canidae. The conditions noted are these: subchronic; duration: 90 days; oral; Dog Other; clinical chemistry.
The next data set concerns Daphnia magna. The following applies: chronic/long-term; duration: 21 days; reproduction.
Another data set deals with Landoltia sp. The following applies: acute; duration: 7 days; biomass.
The test system of a further data set is Lepomis macrochirus. The conditions noted are these: acute; duration: 96 hours; mortality.
A further data set concerns Oncorhynchus mykiss. The conditions noted are these: chronic/long-term; duration: 21 days; mortality.
The subject of the next data set is Tagia sp. The following applies: acute, duration: 14 days.
Another data set concerns Aphidius rhopalosiphi. Put plainly: LR50; higher = less toxic. The conditions noted are these: not reported; mortality.

In brackets after ≈: the same amount, converted by molar mass.

As to `N#CN` [Cyanamide], the NOEC with Anabaena flosaquae turned out to be 0.05 mg/L; in the data set on Bibionidae, 6.6 mg/L; with Colinus virginianus (reproduction developmental) it was 13.3 mg/kg-day; in the data set with Daphnia magna, 0.1 mg/L; in the data set on Landoltia sp., 0.5 mg/L; in the data set with Oncorhynchus mykiss, 3.7 mg/L. In the data set on Tagia sp. (body weight), this molecule displayed an NOEC of 55.7 mg/kg. Further, the LC50 was more than 435 mg/kg-day with Anas platyrhynchos (short-term, feed); more than 1040 mg/kg-day in the data set on Colinus virginianus (acute, oral, diet, mortality); 43.1 µg/mL (≈ 1030 µM) in the data set with Lepomis macrochirus; more than 112 mg/kg with Tagia sp. (mortality). Moreover, the LD50 is more than 10 µg/piece in the data set with Apis mellifera; 350 mg/kg-day in the data set with Colinus virginianus (acute, oral, mortality); 223 mg/kg-day in the data set on Rattus norvegicus (acute, oral, mortality). Further, the no-observed-adverse-effect level (NOAEL) came out at 0.6 mg/kg-day in the data set on Canidae and 5 mg/kg-day in the data set with Rattus norvegicus (developmental, development). Besides, the NOEL with Rattus norvegicus (reproduction developmental, reproduction) is 3.75 mg/kg-day. For the same molecule, the LR50 in the data set with Aphidius rhopalosiphi was 432 g/ha.
Regarding `N#CN=C(N)N` [Cyanoguanidine], the LD50 in the data set on Anas platyrhynchos (acute, unspecified) was more than 2000 mg/kg-day.
